Earlier results on two compounds are cited in article PMC8287861 (Frontiers in Microbiology, 2021).

The MIC is the least concentration at which growth counts as inhibited. For orientation: MIC50 means an inhibitory concentration at the 50% level, which refers to growth in some studies and to a panel of isolates in others. By MIC90 is commonly meant the lowest concentration that inhibits either 90% of growth or 90% of the strains tested, depending on the study.

≈ marks a conversion by molar mass, not a printed value. Like-named read-outs stand apart in the source and are kept apart here.

Data set [1] concerns KPC-producing strains of Klebsiella pneumoniae and blaKPC mutants. The arrangement: method as in Nelson et al., 2019. Conditions: ref Nelson et al., 2019.
Data set [2] concerns PAM4938 VCC-1. On the set-up: method as in Lomovskaya et al. (2020b). Particulars: PAM4938, VCC-1, class A-CARB; ref Lomovskaya et al. (2020b).
Data set [3] has as its system Pseudomonas aeruginosa. On the set-up: method as in Lomovskaya et al. (2021). Conditions: ref Lomovskaya et al. (2021); for MIC50 / MIC90: challenge panel, QPX7728 at 8 μg/ml.
The subject of data set [4] is PAM4827 OXA-1. The arrangement: method as in Lomovskaya et al. (2020b). Conditions: PAM4827, OXA-1, class D; ref Lomovskaya et al. (2020b).

For the compound `CC(C)(O/N=C(\C(=O)N[C@@H]1C(=O)N2C(C(=O)[O-])=C(C[n+]3ccccc3)CS[C@H]12)c1csc(N)n1)C(=O)O` [Ceftazidime, ceftazidime], the minimum inhibitory concentration (MIC) in data set [1] (KP1074, KPC-3, SHV-11, TEM-1/GD) was >128 µg/mL; in data set [1] (KP1099, KPC-2, SHV-11, SHV-12, CTX-M-14/GD), >128 µg/mL; in data set [1] (KP1102, KPC-3, TEM-1, SHV-11/GD) it was >128 µg/mL; in data set [1] (KP1246, KPC-3, SHV-12, SHV-11/FL), >128 µg/mL; in data set [1] (KP1252, KPC-3, TEM-1, SHV-11/FL) it was >128 µg/mL; in data set [1] (KP1317, KPC-3, TEM-1, SHV-11/GD), >128 µg/mL. Also, the minimum inhibitory concentration (MIC) was >128 µg/mL in data set [1] (KP1500, KPC-3, TEM-1, SHV-11, CTX-M-15 OXA-1 OXA-9/IS at −48); >128 µg/mL in data set [1] (KPM3191, KPC-3:: DDK duplication at aa#831 (KPC-29)); >128 µg/mL in data set [1] (KPM3192, KPC-3:: D179Y (KPC-31)); >128 µg/mL in data set [1] (KPM3200, KPC-3::duplication of EAVI (aa#278)); >128 µg/mL in data set [1] (KPM3205, KPC-3 ::duplication of KKDY (aa#273)); >128 µg/mL in data set [1] (KPM3210, KPC-2::D179N). For the same compound, the minimum inhibitory concentration (MIC) was >128 µg/mL in data set [1] (KPM3212, deletion of ELNSAI at aa#497); >128 µg/mL in data set [1] (KPM3213, KPC-2::D179Y (KPC-31), selected from KP1099); >128 µg/mL in data set [1] (KPM3214, KPC-2::D179A); >128 µg/mL in data set [1] (KPM3493, KPC-3::duplication of EL at aa#164 (KPC-25)); >128 µg/mL in data set [1] (KPM3494, KPC-3::R167S); >128 µg/mL in data set [1] (KPM3495, KPC-3::A175V). In addition, the MIC is >128 µg/mL in data set [1] (KPM3511, KPC-3::P174Q); >128 µg/mL in data set [1] (KPM3512, KPC-3:: P174L); >128 µg/mL in data set [1] (KPM3517, KPC-3::D179Y (KPC-31)); >128 µg/mL in data set [1] (KPM3520, Both WT and mutant KPC-3::duplication of 8aa (aa#264–271)); >128 µg/mL in data set [1] (KPM3523, Both WT and mutant KPC-3:: deletion of EL (aa#241–242)); >128 µg/mL in data set [1] (KPM3546, KPC-3::R164H).

In the case of `CCN1CCN(C(=O)N[C@@H](C(=O)N[C@@H]2C(=O)N3[C@@H]2SC(C)(C)[C@@H]3C(=O)O)c2ccccc2)C(=O)C1=O` [Piperacillin, piperacillin], the MIC in data set [2] was 16 µg/mL (≈ 30.9 µM); in data set [4], 4 µg/mL (≈ 7.73 µM). In data set [3] (challenge panel (N = 290), with QPX7728, 8 or 16 μg/ml for cefepime and piperacillin, respectively), the “% of isolates shifted by QPX7728 at or below breakpoint” value is given as 70.3%. The MIC50 in data set [3] (All (N = 290)), in data set [3] (MBL (N = 61)) and in data set [3] (No MBL (N = 229)) was >64 µg/mL each time. Besides, the MIC90 in data set [3] (All (N = 290)), in data set [3] (MBL (N = 61)) and in data set [3] (No MBL (N = 229)) was >64 µg/mL in each case.
